Assay results taken from ChEMBL document CHEMBL1140804, “Design, synthesis and evaluation of trifluoromethane sulfonamide derivatives as new potent and selective peroxisome proliferator-activated receptor alpha agonists” (Bioorg Med Chem Lett, 2008).

The molecules below were run against T1, Peroxisome proliferator-activated receptor alpha (Homo sapiens, UniProt Q07869).
T1 sequence (Q07869 whole entry): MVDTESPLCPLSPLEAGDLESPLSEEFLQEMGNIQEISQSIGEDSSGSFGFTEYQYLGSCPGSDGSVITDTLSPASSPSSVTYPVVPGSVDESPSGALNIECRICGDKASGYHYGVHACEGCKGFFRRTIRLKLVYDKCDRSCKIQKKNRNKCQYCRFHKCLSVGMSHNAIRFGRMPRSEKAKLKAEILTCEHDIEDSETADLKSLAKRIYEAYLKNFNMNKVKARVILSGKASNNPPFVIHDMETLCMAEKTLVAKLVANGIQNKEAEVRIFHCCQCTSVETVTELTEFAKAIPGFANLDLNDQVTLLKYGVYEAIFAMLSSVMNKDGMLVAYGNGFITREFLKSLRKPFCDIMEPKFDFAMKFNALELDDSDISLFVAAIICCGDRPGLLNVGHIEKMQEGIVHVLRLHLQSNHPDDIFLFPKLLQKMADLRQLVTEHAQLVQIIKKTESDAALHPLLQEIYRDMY
Description: Agonist activity at human PPARalpha assessed as receptor activation by cell based assay

Compound | EC50 [nM]
Cc1nc(-c2ccc(C(F)(F)F)cc2)sc1C(=O)NCc1ccc(OC(C)(C)C(=O)NS(=O)(=O)C(F)(F)F)cc1 | > 10000
Cc1nc(-c2ccc(C(F)(F)F)cc2)sc1C(=O)NCc1ccc(-c2c(O)c(=O)c2=O)cc1 | > 10000
Cc1nc(-c2ccc(C(F)(F)F)cc2)sc1C(=O)NCc1ccc(NS(=O)(=O)CC(F)(F)F)cc1 | 3
COCc1nc(-c2ccc(C(=O)NCc3ccc(NS(=O)(=O)C(F)(F)F)cc3)cc2)no1 | 360
COc1ccc2sc(C(=O)NCc3ccc(NS(=O)(=O)C(F)(F)F)cc3)cc2c1 | 80
Cc1csc(-c2ccc(C(=O)NCc3ccc(NS(=O)(=O)C(F)(F)F)cc3)cc2)n1 | 60
Cc1nc(-c2ccc(C(F)(F)F)cc2)sc1C(=O)NCc1ccc(NS(=O)(=O)C(C)C)cc1 | 50

Next, values leading:

EC50 [nM] | Compound
5000 | Cc1csc(-c2ccc(C(=O)NCc3ccc(OC(C)(C)C(=O)O)cc3)cc2)n1
20 | N#Cc1ccc(-c2ccc(C(=O)NCc3ccc(NS(=O)(=O)C(F)(F)F)cc3)cc2)cc1
6000 | COc1ccc2sc(C(=O)NCc3ccc(OC(C)(C)C(=O)O)cc3)cc2c1
70 | CC(C)(Oc1ccc(CNC(=O)c2ccc(-c3ccc(Cl)cc3)cc2)cc1)C(=O)O

Each molecule was assayed against T2, Peroxisome proliferator-activated receptor gamma (Mus musculus, UniProt P37238).
T2 sequence (P37238 whole entry): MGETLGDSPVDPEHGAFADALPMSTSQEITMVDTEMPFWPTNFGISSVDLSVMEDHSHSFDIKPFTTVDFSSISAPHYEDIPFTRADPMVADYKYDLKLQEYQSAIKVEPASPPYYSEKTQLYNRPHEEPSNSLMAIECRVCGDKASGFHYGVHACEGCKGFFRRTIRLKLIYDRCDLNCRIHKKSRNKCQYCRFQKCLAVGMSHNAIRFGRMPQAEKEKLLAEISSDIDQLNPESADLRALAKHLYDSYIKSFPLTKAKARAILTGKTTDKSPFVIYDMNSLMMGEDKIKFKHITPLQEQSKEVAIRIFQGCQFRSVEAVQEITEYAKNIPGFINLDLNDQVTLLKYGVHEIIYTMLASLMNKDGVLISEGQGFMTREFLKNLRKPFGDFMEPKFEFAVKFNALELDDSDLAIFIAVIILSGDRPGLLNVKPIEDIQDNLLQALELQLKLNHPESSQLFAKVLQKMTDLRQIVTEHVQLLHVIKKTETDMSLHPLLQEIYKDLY
Description: Agonist activity at mouse PPARgamma assessed as receptor activation by cell based assay

EC50 [nM] | Compound
> 10000 | Cc1nc(-c2ccc(C(F)(F)F)cc2)sc1C(=O)NCc1ccc(OC(C)(C)C(=O)NS(=O)(=O)C(F)(F)F)cc1
> 10000 | Cc1nc(-c2ccc(C(F)(F)F)cc2)sc1C(=O)NCc1ccc(-c2c(O)c(=O)c2=O)cc1
> 10000 | Cc1nc(-c2ccc(C(F)(F)F)cc2)sc1C(=O)NCc1ccc(NS(=O)(=O)C(C)C)cc1

Compound | EC50 [nM]
Cc1nc(-c2ccc(C(F)(F)F)cc2)sc1C(=O)NCc1ccc(NS(=O)(=O)CC(F)(F)F)cc1 | 300

These molecules were tested against T3, Peroxisome proliferator-activated receptor alpha (Mus musculus, UniProt P23204).
T3 sequence (P23204 whole entry): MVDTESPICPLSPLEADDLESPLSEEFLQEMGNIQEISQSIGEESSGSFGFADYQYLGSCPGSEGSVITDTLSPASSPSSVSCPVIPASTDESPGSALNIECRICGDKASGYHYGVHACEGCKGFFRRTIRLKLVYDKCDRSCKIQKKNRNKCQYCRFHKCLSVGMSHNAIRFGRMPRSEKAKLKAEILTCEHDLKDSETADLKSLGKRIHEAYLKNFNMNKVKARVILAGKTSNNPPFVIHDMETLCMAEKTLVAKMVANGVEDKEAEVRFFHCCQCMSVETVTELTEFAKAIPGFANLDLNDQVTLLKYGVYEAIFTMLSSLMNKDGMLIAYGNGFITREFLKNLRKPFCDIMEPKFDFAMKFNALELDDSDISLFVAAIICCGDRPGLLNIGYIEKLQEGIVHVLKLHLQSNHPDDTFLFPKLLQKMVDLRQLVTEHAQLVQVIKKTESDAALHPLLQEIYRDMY
Description: (§1) Agonist activity at mouse PPARalpha assessed as receptor activation by cell based assay

Compound | EC50 [nM]
Cc1nc(-c2ccc(C(F)(F)F)cc2)sc1C(=O)NCc1ccc(OC(C)(C)C(=O)NS(=O)(=O)C(F)(F)F)cc1 | > 10000
Cc1nc(-c2ccc(C(F)(F)F)cc2)sc1C(=O)NCc1ccc(-c2c(O)c(=O)c2=O)cc1 | > 10000
Cc1nc(-c2ccc(C(F)(F)F)cc2)sc1C(=O)NCc1ccc(NS(=O)(=O)CC(F)(F)F)cc1 | 60
COCc1nc(-c2ccc(C(=O)NCc3ccc(NS(=O)(=O)C(F)(F)F)cc3)cc2)no1 | 700
COc1ccc2sc(C(=O)NCc3ccc(NS(=O)(=O)C(F)(F)F)cc3)cc2c1 | 130
Cc1csc(-c2ccc(C(=O)NCc3ccc(NS(=O)(=O)C(F)(F)F)cc3)cc2)n1 | 80
Cc1nc(-c2ccc(C(F)(F)F)cc2)sc1C(=O)NCc1ccc(NS(=O)(=O)C(C)C)cc1 | > 10000

Results, then the molecule that gave them:

EC50 [nM] | Compound
> 25000 | Cc1csc(-c2ccc(C(=O)NCc3ccc(OC(C)(C)C(=O)O)cc3)cc2)n1
200 | N#Cc1ccc(-c2ccc(C(=O)NCc3ccc(NS(=O)(=O)C(F)(F)F)cc3)cc2)cc1
> 25000 | COc1ccc2sc(C(=O)NCc3ccc(OC(C)(C)C(=O)O)cc3)cc2c1
1000 | CC(C)(Oc1ccc(CNC(=O)c2ccc(-c3ccc(Cl)cc3)cc2)cc1)C(=O)O

These molecules were tested against T4, Peroxisome proliferator-activated receptor alpha (Mus musculus) (UniProt P23204).
T4 sequence (whole entry): T3 sequence (P23204 whole entry)
Description: as §1

Compound | Activity [%]
Cc1nc(-c2ccc(C(F)(F)F)cc2)sc1C(=O)NCc1ccc(NS(=O)(=O)CC(F)(F)F)cc1 | 74
COCc1nc(-c2ccc(C(=O)NCc3ccc(NS(=O)(=O)C(F)(F)F)cc3)cc2)no1 | 116
COc1ccc2sc(C(=O)NCc3ccc(NS(=O)(=O)C(F)(F)F)cc3)cc2c1 | 132
Cc1csc(-c2ccc(C(=O)NCc3ccc(NS(=O)(=O)C(F)(F)F)cc3)cc2)n1 | 96

More lines, now with the values ahead:

Activity [%] | Compound
152 | N#Cc1ccc(-c2ccc(C(=O)NCc3ccc(NS(=O)(=O)C(F)(F)F)cc3)cc2)cc1
130 | CC(C)(Oc1ccc(CNC(=O)c2ccc(-c3ccc(Cl)cc3)cc2)cc1)C(=O)O

These molecules were tested against T5, Peroxisome proliferator-activated receptor gamma (Homo sapiens, UniProt P37231).
T5 sequence (P37231 whole entry): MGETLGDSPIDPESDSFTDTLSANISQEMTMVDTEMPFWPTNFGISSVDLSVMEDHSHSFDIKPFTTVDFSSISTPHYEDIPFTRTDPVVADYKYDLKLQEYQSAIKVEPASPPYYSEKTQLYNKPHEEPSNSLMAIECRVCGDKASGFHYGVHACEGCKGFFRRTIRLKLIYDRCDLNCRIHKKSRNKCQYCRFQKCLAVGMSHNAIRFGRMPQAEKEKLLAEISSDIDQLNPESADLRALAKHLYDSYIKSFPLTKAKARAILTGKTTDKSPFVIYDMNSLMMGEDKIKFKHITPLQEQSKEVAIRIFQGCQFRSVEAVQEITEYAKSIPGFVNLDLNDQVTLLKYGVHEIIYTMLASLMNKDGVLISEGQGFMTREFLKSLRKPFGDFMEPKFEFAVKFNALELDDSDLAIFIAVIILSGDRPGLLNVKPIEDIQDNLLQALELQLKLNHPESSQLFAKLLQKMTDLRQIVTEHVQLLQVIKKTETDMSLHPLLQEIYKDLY
Description: Agonist activity at human PPARgamma assessed as receptor activation by cell based assay

EC50 [nM] | Compound
> 10000 | Cc1nc(-c2ccc(C(F)(F)F)cc2)sc1C(=O)NCc1ccc(OC(C)(C)C(=O)NS(=O)(=O)C(F)(F)F)cc1
> 10000 | Cc1nc(-c2ccc(C(F)(F)F)cc2)sc1C(=O)NCc1ccc(-c2c(O)c(=O)c2=O)cc1
> 10000 | Cc1nc(-c2ccc(C(F)(F)F)cc2)sc1C(=O)NCc1ccc(NS(=O)(=O)C(C)C)cc1

Compound | EC50 [nM]
Cc1nc(-c2ccc(C(F)(F)F)cc2)sc1C(=O)NCc1ccc(NS(=O)(=O)CC(F)(F)F)cc1 | 300

The molecules below were run against T6, Peroxisome proliferator-activated receptor delta (Mus musculus, UniProt P35396).
T6 sequence (P35396 whole entry): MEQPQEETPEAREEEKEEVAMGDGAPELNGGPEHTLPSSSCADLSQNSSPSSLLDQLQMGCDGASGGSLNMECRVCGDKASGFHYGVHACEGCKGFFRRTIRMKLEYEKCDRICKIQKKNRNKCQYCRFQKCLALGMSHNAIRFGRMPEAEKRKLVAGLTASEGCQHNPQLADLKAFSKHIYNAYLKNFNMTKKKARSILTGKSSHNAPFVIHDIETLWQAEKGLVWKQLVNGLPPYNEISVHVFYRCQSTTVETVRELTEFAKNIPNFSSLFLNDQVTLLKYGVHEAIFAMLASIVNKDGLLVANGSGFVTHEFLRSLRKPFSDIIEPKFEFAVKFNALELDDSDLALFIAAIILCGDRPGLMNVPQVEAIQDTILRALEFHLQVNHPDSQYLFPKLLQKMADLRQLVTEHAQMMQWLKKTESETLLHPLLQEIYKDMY
Description: Agonist activity at mouse PPARdelta assessed as receptor activation by cell based assay

EC50 [nM] | Compound
> 10000 | Cc1nc(-c2ccc(C(F)(F)F)cc2)sc1C(=O)NCc1ccc(OC(C)(C)C(=O)NS(=O)(=O)C(F)(F)F)cc1
> 10000 | Cc1nc(-c2ccc(C(F)(F)F)cc2)sc1C(=O)NCc1ccc(-c2c(O)c(=O)c2=O)cc1
> 10000 | Cc1nc(-c2ccc(C(F)(F)F)cc2)sc1C(=O)NCc1ccc(NS(=O)(=O)C(C)C)cc1

Compound | EC50 [nM]
Cc1nc(-c2ccc(C(F)(F)F)cc2)sc1C(=O)NCc1ccc(NS(=O)(=O)CC(F)(F)F)cc1 | > 10000

The molecules below were run against T7, Peroxisome proliferator-activated receptor delta (Homo sapiens, UniProt Q03181).
T7 sequence (Q03181 whole entry): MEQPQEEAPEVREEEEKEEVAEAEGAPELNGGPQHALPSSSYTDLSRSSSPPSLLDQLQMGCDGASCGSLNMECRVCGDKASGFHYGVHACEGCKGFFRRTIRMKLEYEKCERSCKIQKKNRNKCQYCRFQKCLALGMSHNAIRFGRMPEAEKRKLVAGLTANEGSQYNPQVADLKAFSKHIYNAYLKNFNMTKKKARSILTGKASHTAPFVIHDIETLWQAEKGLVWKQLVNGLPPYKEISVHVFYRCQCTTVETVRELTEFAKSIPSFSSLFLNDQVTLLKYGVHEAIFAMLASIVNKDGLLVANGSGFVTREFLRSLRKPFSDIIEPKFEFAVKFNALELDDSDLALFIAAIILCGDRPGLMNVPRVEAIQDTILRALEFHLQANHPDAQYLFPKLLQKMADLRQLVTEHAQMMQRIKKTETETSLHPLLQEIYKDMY
Description: Agonist activity at human PPARdelta assessed as receptor activation by cell based assay

EC50 [nM] | Compound
> 10000 | Cc1nc(-c2ccc(C(F)(F)F)cc2)sc1C(=O)NCc1ccc(OC(C)(C)C(=O)NS(=O)(=O)C(F)(F)F)cc1
> 10000 | Cc1nc(-c2ccc(C(F)(F)F)cc2)sc1C(=O)NCc1ccc(-c2c(O)c(=O)c2=O)cc1
> 10000 | Cc1nc(-c2ccc(C(F)(F)F)cc2)sc1C(=O)NCc1ccc(NS(=O)(=O)C(C)C)cc1

Compound | EC50 [nM]
Cc1nc(-c2ccc(C(F)(F)F)cc2)sc1C(=O)NCc1ccc(NS(=O)(=O)CC(F)(F)F)cc1 | > 10000
